Data taken from US20220387375A1, “TRPV1 ACTIVATION-MODULATING COMPLEX MIXTURES OF CANNABINOIDS AND/OR TERPENES” (GBS Global Biopharma, Inc., priority 2018, published 2022).

Key:
TRPV1 [1] = target: T1, TRPV1 (Rattus norvegicus, UniProt O35433); test: Whole-cell patch clamp of TRPV1 currents in HEK293 cells overexpressing TRPV1 (HEK293-V1); format: cell-based; details: for ion selectivity / state of TRPV1 activation: 10 μM capsaicin; for effect of increasing internal calcium (0, 180, 620 nM) on falling phase or inactivation kinetics: 10 μM myrcene, then 1 μM capsaicin; for time course of induced TRPV1 current (sustained or inactivating): cannabinoid at 50, 5 μM myrcene or 1 μM capsaicin
T1 construct: FLAG; expressed in transfected cells
T1 sequence (O35433 whole entry): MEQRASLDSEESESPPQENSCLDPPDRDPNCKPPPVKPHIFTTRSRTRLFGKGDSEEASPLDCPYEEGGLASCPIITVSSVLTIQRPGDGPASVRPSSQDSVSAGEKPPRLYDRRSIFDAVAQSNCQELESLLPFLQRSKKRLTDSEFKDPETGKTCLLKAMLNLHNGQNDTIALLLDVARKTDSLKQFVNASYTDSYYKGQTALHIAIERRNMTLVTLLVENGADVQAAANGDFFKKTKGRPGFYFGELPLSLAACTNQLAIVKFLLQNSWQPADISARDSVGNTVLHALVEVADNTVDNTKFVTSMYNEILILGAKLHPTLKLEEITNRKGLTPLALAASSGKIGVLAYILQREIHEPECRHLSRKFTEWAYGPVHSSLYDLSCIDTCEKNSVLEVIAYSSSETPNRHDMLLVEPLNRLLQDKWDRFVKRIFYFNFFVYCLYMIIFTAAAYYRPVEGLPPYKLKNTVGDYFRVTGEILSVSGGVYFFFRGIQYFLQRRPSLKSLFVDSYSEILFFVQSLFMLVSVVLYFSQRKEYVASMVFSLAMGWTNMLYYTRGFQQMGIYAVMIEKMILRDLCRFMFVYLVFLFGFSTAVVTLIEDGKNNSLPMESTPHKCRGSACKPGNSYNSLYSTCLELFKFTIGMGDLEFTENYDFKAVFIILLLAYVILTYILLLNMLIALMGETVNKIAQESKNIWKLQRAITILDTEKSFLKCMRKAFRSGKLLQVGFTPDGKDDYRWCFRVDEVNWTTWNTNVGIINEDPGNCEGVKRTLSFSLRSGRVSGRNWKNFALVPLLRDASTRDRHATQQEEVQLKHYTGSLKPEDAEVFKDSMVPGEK
Method: HEK TRexTRPV1 were cultured in DMEM, 10% Fetal Bovine Serum, 2 mM Lglutamine, 10 μg/ml Blasticidin (Calbiochem, San Diego Calif.), 400 μg/ml Zeocin (InvivoGen, San Diego Calif.), where indicated transgene expression was induced using 1 μg/ml Tetracycline for 16-24 hrs. Unless otherwise indicated, basal expression of TRPV1 without induction was sufficient for these studies, and comparisons were made to untransfected HEK where needed. HEKTRex293 over-expressing human TRPV2, human TRPA1 and human TRPM8 were obtained from SB Drug Discovery (Glasgow, Scotland) and cultured as described above. The cannabinoids and terpenes were assayed in HEK cells that have been transfected with the TRPV1 ion channel protein. These cells are called HEK293-V1 cells.
This technique is used to study ionic currents from HEK293-V1. The voltage across the cell membrane is controlled and the ionic currents associated with changes in voltage are measured. A micropipette tip is pulled to a few micrometers in diameter followed by heating the tip to produce a smooth surface that assists in forming a high resistance seal with the cell membrane. To obtain this high resistance seal, the micropipette is pressed against a cell membrane and suction is applied. The membrane then fuses onto the glass surface creating a high resistance in the gigaohm range. This makes it possible to isolate electronically the ionic currents measured across the membrane patch or across the entire cell.
Patch-clamp experiments were performed in the whole-cell configuration at 21-25° C. Patch pipettes had resistances of 2-3 MΩ. Data was acquired with PatchMaster software (HEKA, Lambrecht, Germany), controlling an EPC-9 amplifier. Voltage ramps of 50 ms spanning the voltage range from −100 to 100 mV were delivered from a holding potential of 0 mV at a rate of 0.5 Hz over a period of 500 ms to 180 seconds (3 minutes). Voltages were corrected for a liquid junction potential of 10 mV. Currents were filtered at 2.9 kHz and digitized at 100 μs intervals. Capacitive currents were determined and corrected before each voltage ramp. The development of currents for a given potential was extracted from individual ramp current records by measuring the current amplitudes at voltages of −80 mV and +80 mV. Data were analyzed with FitMaster (HEKA, Lambrecht, Germany), and IgorPro (WaveMetrics, Lake Oswego, Oreg., USA). Where applicable, statistical errors of averaged data are given as mean±s.e.m with n determinations. The activated current amplitudes are analyzed by nA rather than pA/pF. […] Also the cell size selected for patching was in the 9 -12 pF range.
For patch-clamp recordings, HEK293 cells were kept in a standard sodium-based external Ringer's solution containing (mM): 140 NaCl, 1 CaCl2, 2 MgCl2, 2.8 KCl, 11 glucose, 10 HEPES-NaOH with a pH of 7.2 and osmolarity of 300 mOsmol. To assess the effects of external Calcium (Ca) on TRPV1 inactivation kinetics, Ca at different levels were tested including 0, 1, and 3 mM. In Experiments with zero external Ca, EGTA 10 mM was added and the Na concentration was lowered to 130 mM to maintain standard osmotic conditions at 300 mOsmol. For rapid external solution application and exchanges we used the SmartSquirt delivery system (Auto-Mate Scientific, San Francisco Calif., USA) that included four cryo tubes allowing for solution exchanges within one patch. This system included a ValveLink TTL interface between the electronic valves and the EPC10 amplifier (HEKA, Lambrecht, Germany). This electronic configuration allowed for programmable solution changes via the PatchMaster software (HEKA, Lambrecht, Germany).

TRPV1 [2] = target: T1, TRPV1; test: Bulk calcium assay (Fluo-4) in HEK-TRPV1 overexpressing cells; format: cell-based; details: for TRPV1-mediated calcium influx compared to vehicle: terpene 10 μM, vehicle subtracted (FIG. 14)
Method: Cells were washed and incubated with 0.2 micromolar Fluo-4 for 30 minutes at 37° C. in a standard modified Ringer's solution of the following composition (in mM): NaCl 145, KCl 2.8, CsCl 10, CaCl2 10, MgCl2 2, glucose 10, Hepes·NaOH 10, pH 7.4, 330 mOsm. Cells were transferred to 96-well plates at 50,000 cells/well and stimulated as indicated. Calcium signals were acquired using a Flexstation 3 (Molecular Devices, Sunnydale, USA). Data was analyzed using SoftMax® Pro 5 (Molecular Devices). Where indicated, nomically calcium-free external conditions were achieved by the preparation of 0 mM CaCl2 Ringer solution containing 1 mM EGTA.
The cell culture system described in U.S. patent application Ser. No. 15/986,316 was used to test the TRPV1-mediated calcium response to various terpenes. The HEK293 cell line was stably transfected with the pcDNA6TR (Invitrogen, CA) plasmid (encoding the tetracycline-sensitive TREx repressor protein), and was maintained in DMEM+10% fetal bovine serum (inactivated at 55° C. for 1 h)+2 mM glutamine in humidified 5% CO2 atmosphere at 37° C. Selection pressure on the TRex 293 cells was maintained by continuous culture in 10 μg/ml Blasticidin (Sigma, St Louis, Mo.).
For production of TRex HEK293 cells with inducible expression of TRPV1, parental cells were electroporated with the rat TRPV1 cDNA in the pcDNA4TO vector and clonal cell lines were selected by limiting dilution in the presence of 400 μg/ml zeocin (Invitrogen, CA). TRPV1 expression was induced using 1 μg/ml tetracycline for 16 h at 37° C. Stable lines were screened for inducible protein expression using anti-FLAG Western blot, and inducible expression was confirmed.
Calcium responses mediated by TRPV1 were tested by calcium assay in the cell culture system. Cells were washed and incubated with 0.2 μM fluo-4 acetoxymethyl ester (“Fluo-4”) for 30 minutes at 37° C. in a standard modified Ringer's solution of the following composition (in mM): NaCl 145, KCl2.8, CsCl10, CaCl2 10, MgCl2 2, glucose 10, Hepes·NaOH 10, pH 7.4, 330 mOsm. Cells were transferred to 96-well plates at 50,000 cells/well and stimulated as indicated. The terpenes used were alpha-bisabool, alpha-pinene, myrcene, camphene, linalool, ocimene, humulene, beta-caryophyllene, beta-pinene, limonene, and nerolidol. The terpenes were diluted in DMSO and added to the wells to a final concentration of 10 μM. Vehicle (DMSO) alone was run as a negative control and subtracted from the terpene traces. Calcium signals were acquired using a Flexstation 3 (Molecular Devices, Sunnydale, USA). Data was analyzed using SoftMax® Pro 5 (Molecular Devices).
Calcium responses mediated by TRPA1, TRPM8, TRPV2, and TRPV1 were tested by calcium assay in the cell culture system. Cells were washed and incubated with 0.2 μM fluo-4 acetoxymethyl ester (“Fluo-4”) for 30 minutes at 37° C. in a standard modified Ringer's solution of the following composition (in mM): NaCl 145, KCl 2.8, CsCl 10, CaCl2 10, MgCl2 2, glucose 10, Hepes·NaOH 10, pH 7.4, 330 mOsm. Cells were transferred to 96-well plates at 50,000 cells/well and stimulated with 10 μM myrcene diluted in DMSO. Vehicle (DMSO) was used as a negative control. Vehicle traces were subtracted from the myrcene traces for each cell line.
As shown in FIGS. 16A-H, a variety of cannabinoids were capable of initiating Ca^2+ fluxes in HEK-TRPV1 overexpressing cells, except for cannabigerol and cannabinol. Comparative responses to a single dose (10 μM concentration) of a variety of cannabinoids were made in the presence of 1 mM external Ca^2+, which are population-based, or bulk Ca^2+, measurements with each trace representing averaged triplicates of 100,000 cells per sample. […] For each of the cannabinoid compounds, dose responses at the population level were performed. […] The lower limit of detectable calcium responses in this system varied from 10-100 nM (CBDV, CBGA) to 1-10 μM.

## Oc1cc2c(cc1O)CN(C(=S)NCCc1ccc(Cl)cc1)CCC2 [Capsazepine, reference compound]
TRPV1 [1]; CPZ 10 μM for 30 seconds after 50 nM Capsaicin for 60 seconds
  effect on capsaicin-induced TRPV1 current: reduced both the inward and outward currents
TRPV1 [1]; CPZ added after 10 μM capsaicin
  effect on capsaicin-activated TRPV1 channel (state 1 and state 2): rapid TRPV1 channel deactivation
TRPV1 [1]; CPZ application 30 seconds after CBD 30 μM
  effect on CBD-induced TRPV1 current: reduced

## CC(C)=CCC[C@](C)(O)[C@@H]1CC=C(C)CC1 [alpha-bisabool]
TRPV1 [2]
  TRPV1-mediated calcium influx compared to vehicle: little to no calcium influx

## CC1=CCC2CC1C2(C)C (stereo not drawn) [alpha-pinene]
TRPV1 [2]
  TRPV1-mediated calcium influx compared to vehicle: little to no calcium influx

## C=C1CC/C=C(\C)CC[C@@H]2[C@@H]1CC2(C)C [beta-caryophyllene]
TRPV1 [2]
  TRPV1-mediated calcium influx compared to vehicle: little to no calcium influx

## C=C1CCC2CC1C2(C)C (stereo not drawn) [beta-pinene]
TRPV1 [2]
  TRPV1-mediated calcium influx compared to vehicle: little to no calcium influx

## C=C1C2CCC(C2)C1(C)C (stereo not drawn) [camphene]
TRPV1 [2]
  TRPV1-mediated calcium influx compared to vehicle: little to no calcium influx

## COc1cc(CNC(=O)CCCC/C=C/C(C)C)ccc1O [capsaicin, Capsaicin, reference compound]
TRPV1 [1]; 1 μM capsaicin (not shown), comparison to myrcene
  current induced: 4-10 nA
TRPV1 [1]; absence of internal BAPTA and Ca2+
  ion selectivity / state of TRPV1 activation: Ca^2 ion selective TRPV1 activation
TRPV1 [1]; presence of internal 10 mM BAPTA and 150 nM Ca2+
  ion selectivity / state of TRPV1 activation: Na^+ ion selective TRPV1 activation
TRPV1 [1]
  effect of increasing internal calcium (0, 180, 620 nM) on falling phase or inactivation kinetics: stronger effect
  time course of induced TRPV1 current (sustained or inactivating): sustained
TRPV1 [1]; Capsaicin 50 nM for 60 seconds, Ca 0 internally and externally
  type of TRPV1 current recorded: outwardly rectifying TRPV1 current
TRPV1 [1]; Capsaicin 500 nM
  rectification of current (resulted in rectifying currents or not): did not
TRPV1 [1]; Capsaicin low (30 nM) and medium (100 nM) doses
  rectification of current: rectifying currents
TRPV1 [1]; after 1 μM capsaicin
  IV relationship / TRPV1 channel state: linear due to TRPV1 transitioning to the dilated state (state 2)

## C/C1=C\CC/C(C)=C/CC(C)(C)/C=C/C1 [humulene]
TRPV1 [2]
  TRPV1-mediated calcium influx compared to vehicle: little to no calcium influx

## C=C(C)[C@H]1CC=C(C)CC1 [limonene]
TRPV1 [2]
  TRPV1-mediated calcium influx compared to vehicle: little to no calcium influx

## C=CC(C)(O)CCC=C(C)C (stereo not drawn) [linalool]
TRPV1 [2]
  TRPV1-mediated calcium influx compared to vehicle: little to no calcium influx

## C=CC(=C)CCC=C(C)C [myrcene, 7-methyl-3-methylideneocta-1,6-diene]
TRPV1 [2]; 10 μM myrcene
  activation of cells overexpressing TRPV1 (calcium entry): activated
TRPV1 [2]
  TRPV1-mediated calcium influx compared to vehicle: greatest amount of calcium influx
TRPV1 [1]; 5 μM myrcene, average of 6 independent experiments
  inward current induced: approximately 0.5 nA
TRPV1 [1]
  effect of increasing internal calcium (0, 180, 620 nM) on falling phase or inactivation kinetics: minor effect
  time course of induced TRPV1 current (sustained or inactivating): rapidly inactivating
TRPV1 [1]; 50 μM myrcene (FIG. 10C)
  IV relationship / TRPV1 channel state: state 1
TRPV1 [1]; 150 μM myrcene (FIG. 11)
  IV relationship / TRPV1 channel state: state 1
TRPV1 [1]; myrcene 5 μM, 10 μM and 150 μM (FIGS. 8A-8C)
  current induced: 0.5-2.2 nA

## C=CC(C)(O)CCC=C(C)CCC=C(C)C (stereo not drawn) [nerolidol]
TRPV1 [2]
  TRPV1-mediated calcium influx compared to vehicle: brief initial calcium influx

## C=CC(C)=CCC=C(C)C [ocimene]
TRPV1 [2]
  TRPV1-mediated calcium influx compared to vehicle: little to no calcium influx
